Reference: US10834926B2, “Insecticide properties of an extract of Sextonia rubra, and the constituents thereof” (Centre National de la Recherche Scientifique, priority 2014, dated 2020)

System: larvae of Aedes aegypti mosquitoes of the PAEA laboratory strain
Experiment: Larvicidal in-cup trial on larvae, protocol adapted from WHO protocols
Format: in vivo
Conditions: for LD50 (SE) At 24 h / LD90 (SE) At 24 h / LD50 (SE) At 48 h / LD90 (SE) At 48 h: larval mortality, stage 3-4 larvae, PAEA strain; for LD50 (SE) At 24 h / LD90 (SE) At 24 h: 24 h after exposure; for LD50 (SE) At 48 h / LD90 (SE) At 48 h: 48 h after exposure; for minimum concentration corresponding to an effective amount (100% mortality): 100% mortality of larvae at 24 h
From the text: For the purposes of the present invention, the expression “agent that is insecticidal/larvicidal with respect to a mosquito strain” is intended to mean a compound which results in the death of the mosquito larvae placed in the presence of this compound, for example in the context of an in-cup trial carried out according to the protocol recommended by the WHO (Guidelines for Laboratory and Field Testing of Mosquito Larvicides, WHO/CDS/WHOPES/GCDPP/2005.13, 2005), and for which, according to the WHO criteria for validating the tests, the mortality in the control batches is less than 20%.
The biological trials were carried out on larvae of Aedes aegypti mosquitoes of the PAEA laboratory strain sensitive to all insecticides. The protocol described hereinafter was adapted according to the WHO protocols.
This strain originating from French Polynesia has been maintained for about ten years at the insectarium of the Institut Pasteur of Guyana, in Cayenne. The mosquitoes were bred under natural conditions: temperature of 28° C.±2° C., humidity of 80%±20%, and daytime duration 12:12 h±20 min during the year. The Aedes aegypti eggs were kept dry on strips of blotting paper at the insectarium temperature. Hatching was carried out by placing these strips in water under a vacuum bell jar for at least 20 min. The larvae thus obtained were fed with yeast tablets. The larvae at growth stage 3-4 were then used for the extract and constituent activity tests. 100 larvae were transferred into plastic cups containing 99 ml of distilled water. Four cups per concentration (4×25 larvae) and at least 5 concentrations of each extract or constituent diluted in ethanol (crude extract of Sextonia rubra: 1, 2, 3, 4, 5, 7, 10, 25, 35, 50, 75, 100 μg/ml, rubrenolide: 0.1, 0.3, 0.5, 0.7, 1, 1.5, 2 μg/ml, rubrynolide: 0.1, 0.3, 0.5, 0.7, 1, 1.5, 4, 6, 8 μg/ml) were used to measure mortalities ranging from 0 to 100%. Each concentration of extract or of constituent (1 ml) was added to the cup. Controls were also carried out by adding 1 ml of ethanol to the cup. The mortality was evaluated at 24 h and 48 h after exposure of the larvae to the test product (crude extract, isolated constituent, ethanol).

Row | Molecule | LD50 (SE) At 24 h | LD90 (SE) At 24 h | LD50 (SE) At 48 h | LD90 (SE) At 48 h | minimum concentration corresponding to an effective amount (100% mortality) [µg/mL] | LD50 (SE) At 24 h (listed as rubrenolide) [µg/mL] | LD50 (SE) At 24 h (listed as spinosad) [µg/mL] | LD50 (SE) At 24 h (listed as rubrynolide) [µg/mL]
1 | COP(=O)(OC)OC=C(Cl)Cl [Dichlorvos, dichlorvos, reference compound] | 0.039 (0.012) μg/ml | 0.064 (0.026) μg/ml | 0.029 (0.012) μg/ml | 0.049 (0.020) μg/ml |  |  |  | 
2 | C=CCCCCCCCC[C@@H]1C[C@H](C[C@@H](O)CO)C(=O)O1 [Rubrenolide, rubrenolide] | 0.605 (0.023) μg/ml | 2.110 (0.041) μg/ml | 0.300 (0.024) μg/ml | 0.788 (0.027) μg/ml | 2 | 0.6 |  | 
3 | spinosad [reference compound] | 0.387 (0.025) μg/ml | 1.118 (0.065) μg/ml | 0.193 (0.020) μg/ml | 0.444 (0.028) μg/ml |  |  | 0.4 | 
4 | C#CCCCCCCCC[C@@H]1C[C@H](C[C@@H](O)CO)C(=O)O1 [Rubrynolide, rubrynolide] | 3.840 (0.018) μg/ml | 8.909 (0.031) μg/ml | 2.105 (0.023) μg/ml | 8.200 (0.043) μg/ml | 17 |  |  | 3.8
